Reference: paper PMC6540222, “Small Molecule Inhibitors of KDM5 Histone Demethylases Increase the Radiosensitivity of Breast Cancer Cells Overexpressing JARID1B” (Molecules, 2019)
Values belong to the compound of their own block, whether it stands above or below them.

Assays:
KDM5D = KDM5D (Homo sapiens, UniProt Q9BY66); test: Surface Plasmon Resonance (SPR), immobilized KDM5D; format: binding; conditions: KDM5D immobilized on COOH5 sensorchip, buffer HSP-1%D, analyte 6.25-100 μM
Procedure: Surface Plasmon Resonance (SPR) experiments were carried out using a SensiQ Pioneer system (ICx Nomadics, Stillwater, OK, USA). Immobilization of ligand (KDM5D) was carried out essentially as in Ilari et al.. The sensor chip (COOH5) was activated chemically by a 100 µL injection of a 1:1 mixture of N-ethyl-N′-(3-([…])carbodiimide (200 mM) and N-hydroxysuccinimide (50 mM) at a flow rate of 5 µL/min. KDM5D was immobilized on activated sensor chips via amine coupling. The immobilization was carried out in 20 mM sodium acetate at pH 4.5; the remaining unreacted groups were blocked by injecting 1 M ethanolamine hydrochloride (100 µL). The amount of immobilized KDM5D was detected by mass concentration-dependent changes in the refractive index on the sensor chip surface and corresponded to about 11,000 resonance units (RU); an empty flow cell was used as a reference. Analytes, i.e., inhibitors RS3152, RS3183, RS3195, RS4995 and RS5033 were dissolved in DMSO at a concentration of 10 mM and diluted in HSP buffer (10 mM Hepes pH 7.4, 150 mM NaCl + 0.005% surfactant P20) to yield 100 μM inhibitor concentration in HSP + 1% DMSO (HSP-1%D). The analytes were automatically diluted in HSP-1%D and injected on the sensorchip for 120 s at a constant flow (30 µL/min); analyte concentrations were: (1) 6.25 μM; (2) 12.5 μM; (3) 25 μM; (4) 50 μM; (5) 100 μM. The increase in RU relative to baseline indicates complex formation; the plateau region represents the steady-state phase of the interaction, whereas the decrease in RU after 120 s represents dissociation of analytes from immobilized KDM5 after injection of buffer HSP-1%D. The sensorgrams were analysed using the SensiQ Qdat 4.0 program and using simple Scatchard plots.

[1] = system: MM1S multiple myeloma cells; set-up: method as in PMID 28262558; conditions: cited from earlier work
[2] = system: panel of 55 receptors and enzymes; set-up: method as in PMID 28262558; conditions: cited from earlier work
KDM5A-D = conditions: in vitro, toward KDM5 enzymes; ref Tumber et al. [49]; cited from earlier work
MCF-7 cells [3] = test: CCK-8 viability assay after X-ray irradiation; format: cell-based, human; conditions: MCF-7 irradiated with 3 Gy, all concentrations tested, compared to DMSO control, CCK-8 48 h post irradiation
Procedure: The cytoxicity assay was performed with Cell Counting Kit-8 (#96992, Sigma-Aldrich) according to the manufacturer’s instructions. 100 µL of MCF-7 T47D or MDA-MB231 cell suspension (5000 cells/well) was dispensed in a 96-well plate. After 24 h, inhibitor or DMSO was added in growth medium and then cells were irradiated. 48 h post irradiation, 10 μL of CCK-8 solution was added to each well of the plate and incubated again for 1 h. Incubate the plate for 1–4 h in the incubator. The absorbance at 450 nm was read using a VICTOR2 1420 reader (Perkin Elmer Wallac, Waltham, MA, USA). The absorbance at 450 nm of each sample, which is proportional to the number of viable cells, was first normalized on the same value of absorbance of blank (a well with only growth medium). The absorbance of each dose of radiation (sham, 0.3, 1 and 3 Gy) was normalized to the corresponding DMSO control and then, for each concentration of inhibitors, these values were normalized to the corresponding sham control.

MCF-7 cells [4] = test: Clonogenic assay after X-ray irradiation; format: cell-based, human; conditions: MCF-7, 0.03 μM, 3 and 10 Gy, compared to DMSO control
Procedure: One hour after treatment with inhibitors, cells were exposed to X-ray using a MLG 300/6-D apparatus (Gilardoni, Lecco, Italy) set to […] and 6 mA, in order to produce an equivalent absorbed dose of 1cGy/s. Afterwards, cells were harvested, counted and then diluted in inhibitor containing growth medium. Appropriate cell numbers were seeded in quadruplicate according to the doubling time of the cell line and to radiation dose. 24 h after this seeding, the medium with inhibitor was replaced with fresh DMEM and cells were then incubated for 14 days (enough time to allow at least six cell divisions). After this period of growth, cells were washed twice with PBS and then fixed and stained with a suitable volume of a solution made of 0.3% Methylene Blue and 80% Ethanol for 30 min at room temperature. After washing cells twice with ddH2O, plates were pictured with ChemiDoc XRS+ Imaging System (Bio-Rad) in colorimetric mode. Colonies were detected using Fiji software, with the “Find maxima” function setting a background noise threshold of 3000. Radiation-dose response curveS to X-ray for DMSO and inhibitor samples were calculated using surviving fraction. Plating efficiency and surviving fraction were calculated as follows:Plating efficiency = number of colonies counted/number of cells plated Surviving fraction = Plating efficiency/plating efficiency of shame sample

[5] = system: H3K4me3 levels in MCF-7 cells; test: Western blotting of H3K4me3 levels in bulk chromatin; format: cell-based, human; conditions: MCF7 bulk chromatin, 24 h
Procedure: Histone isolation was performed according to acid extraction of histones protocol of Shechter and colleagues. Histone concentration was determined by running 5 μL of samples and known concentrations of commercially available purified calf thymus histones (from Sigma Aldrich Cat. #000000010223565001) on a SDS-PAGE gel. The gel is stained with Coomassie blue G 250 (BIO-RAD Cat. #161-0786) for 1 hour at room temperature and then destained in distilled water. The gel image is acquired with ChemiDoc XRS+ Imaging System (Bio-Rad, Hercules, CA, USA) and the volumes of bands of the samples are compared to standard concentrations of calf thymus histone.
(§1) Proteins were resolved on a 12% (histones) or 5% (JARID1B) denaturing polyacrylamide gel, using either 4 μg of histone preparation or 40 μg of cell lysate. After electrophoresis, proteins were transferred on a nitrocellulose membrane (Protran™ […] NC, # 10600002, GE Healthcare (Amersham™), Chicago, IL, USA) via wet transfer method using a Bio-Rad tank. Transfer efficiency was verified via ponceau staining (#P7767, Sigma-Aldrich). Filters were blocked with either milk (#70166, Sigma-Aldrich) or bovine serum albumin (#A3069, Sigma-Aldrich) and then hybridized over night at 4 °C in gentle rotation with the following antibodies: rabbit anti-H3K4me3 (1:1000, #39915, Active Motif, RRID:AB_2687512); rabbit-anti-H3K27me3 (1:1000, #9733, Cell Signaling Technology, RRID:AB_2616029); rabbit-anti- H3K9pan-methylated (1:1000, #4473, RRID:AB_10544693); rabbit-anti-H3 ([…], Cat#1791, ABCAM, RRID:AB_302613); rabbit anti-H2AX (1:1000, Cat#7631, Cell Signaling Technology, RRID:AB_10860771), rabbit anti-Phospho-H2AX (1:1000, Cat#9718, Cell Signaling Technology, RRID:AB_2118009), rabbit anti-JARID1B (1:50, Cell Signaling Technology, Cat#3273 RRID: AB_1264191). Goat-anti-Rabbit Horseradish Peroxidase conjugated (1:10,000, #31460, Thermo Fisher Scientific, Waltham, MA, USA RRID:AB_228341) was used as secondary antibody for 1 hour hybridization at room temperature. Blots were scanned and analyzed with a ChemiDoc XRS+ Imaging System (Bio-Rad). The volumes of each band of protein was acquired using Bio-Rad’s ImageLab software by means of volume tools using global quantification. The signal for each protein was normalized to the housekeeping protein and ratios with average control values were determined. For histones as loading control was used either total histone H3 detected by a specific antibody or histone H1 levels by staining the upper part of the gel properly cut before protein transfer on nitrocellulose membrane.

[6] = system: γ-H2AX levels in MCF-7 cells; test: Western blotting of H2AX phosphorylation after irradiation; format: cell-based, human; conditions: RS5033 10 μM, KDOAM-25 0.03 μM
Procedure: as §1

MCF-7 cells [7] = test: Flow-cytometry analysis of cell cycle distribution; format: cell-based, human; conditions: MCF-7, same range of concentrations as H3K4me3 test (not shown)
Procedure: Flow-cytometry analysis of DNA content was carried out using an EPICS xl flow-cytometer (Beckman-Coulter, Brea, CA, USA). DMSO and inhibitor treated MCF-7 cells were trypsinized, pelleted, washed with PBS and finally resuspended in PBS containing 0.1% Triton-X-100 (#A1388.1000, AppliChem, Darmstadt, Germany) and 40 μg/mL propidium iodide (#P-4170, Sigma). After 20 min incubation at 37 °C the samples were analyzed. 10,000 events were acquired for each sample. Acquired data were analyzed using the WinMDI software by Joe Trotter, available at http://facs.scripps.edu.

Sequence of KDM5D (Q9BY66 whole entry): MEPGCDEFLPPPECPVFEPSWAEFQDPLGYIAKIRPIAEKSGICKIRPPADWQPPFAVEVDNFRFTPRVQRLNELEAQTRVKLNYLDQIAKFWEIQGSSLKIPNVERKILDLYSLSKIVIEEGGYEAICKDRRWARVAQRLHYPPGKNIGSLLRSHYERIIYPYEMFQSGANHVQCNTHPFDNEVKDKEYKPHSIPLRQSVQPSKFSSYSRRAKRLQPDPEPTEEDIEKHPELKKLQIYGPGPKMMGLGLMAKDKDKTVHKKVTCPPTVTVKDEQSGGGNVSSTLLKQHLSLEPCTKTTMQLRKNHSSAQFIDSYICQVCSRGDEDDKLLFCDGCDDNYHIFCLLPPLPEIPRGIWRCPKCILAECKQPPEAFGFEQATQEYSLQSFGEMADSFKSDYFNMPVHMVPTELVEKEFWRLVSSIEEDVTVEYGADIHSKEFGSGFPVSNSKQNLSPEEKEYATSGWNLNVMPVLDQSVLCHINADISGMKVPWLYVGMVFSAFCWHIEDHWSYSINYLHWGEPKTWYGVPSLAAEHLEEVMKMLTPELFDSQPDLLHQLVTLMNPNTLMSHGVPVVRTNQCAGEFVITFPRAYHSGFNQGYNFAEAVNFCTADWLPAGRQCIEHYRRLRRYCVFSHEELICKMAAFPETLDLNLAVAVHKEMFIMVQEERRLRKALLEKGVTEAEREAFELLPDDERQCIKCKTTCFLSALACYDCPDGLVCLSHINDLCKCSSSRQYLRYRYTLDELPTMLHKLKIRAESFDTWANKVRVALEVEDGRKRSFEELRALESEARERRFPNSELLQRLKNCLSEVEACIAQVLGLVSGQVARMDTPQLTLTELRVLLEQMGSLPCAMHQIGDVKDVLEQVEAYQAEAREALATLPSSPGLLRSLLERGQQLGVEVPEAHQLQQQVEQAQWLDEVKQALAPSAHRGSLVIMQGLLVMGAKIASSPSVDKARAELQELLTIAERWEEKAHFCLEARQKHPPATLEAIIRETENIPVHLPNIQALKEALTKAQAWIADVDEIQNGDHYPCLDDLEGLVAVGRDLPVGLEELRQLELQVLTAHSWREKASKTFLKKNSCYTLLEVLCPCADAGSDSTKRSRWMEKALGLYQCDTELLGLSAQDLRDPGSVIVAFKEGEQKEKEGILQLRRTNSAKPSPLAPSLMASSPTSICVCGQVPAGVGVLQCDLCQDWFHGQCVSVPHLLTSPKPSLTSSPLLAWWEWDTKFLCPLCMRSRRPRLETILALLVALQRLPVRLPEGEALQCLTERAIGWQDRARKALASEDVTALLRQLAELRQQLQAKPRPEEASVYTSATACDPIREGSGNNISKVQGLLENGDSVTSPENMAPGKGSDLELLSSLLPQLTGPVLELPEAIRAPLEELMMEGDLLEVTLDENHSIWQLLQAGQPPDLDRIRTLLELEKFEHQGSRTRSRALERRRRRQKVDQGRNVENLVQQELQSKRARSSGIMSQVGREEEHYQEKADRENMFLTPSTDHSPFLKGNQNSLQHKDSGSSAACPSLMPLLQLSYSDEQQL

- Kd (KDM5D): 62 ± 5 µM
Compound: COc1ccc(S(=O)(=O)Nc2cccc(C(=O)n3cccc3)c2)cc1 [RS3152]

Compound: CCN(CCN(C)C)C(=O)CNCc1cc(C(N)=O)ccn1 [KDOAM-25, reference compound]
- proliferation of MM1S multiple myeloma cells [1]: block proliferation
- off-target activity [2]: no off-target activity
- IC50 (KDM5A-D): < 0.1 µM
- reduction of viable cells (MCF-7 cells [3]): 20–35%
- proliferative capacity (clonogenic survival) (MCF-7 cells [4]): slight but significant decrease
- increase of H3K4 tri-methylation ([5]; 0.03–1 μM): around 1.5 fold
- increase of H3K4 tri-methylation at higher concentrations ([5]; concentrations above 1 μM): the effect is lost
- ɤH2AX increase normalized to the amount of H2AX ([6]; MCF-7, 6 Gy, 4-36 h): not significant
- amount of ɤH2AX ([6]; MCF-7, sham-irradiated and irradiated (6 Gy) cells): increases
- effect on cell cycle (MCF-7 cells [7]): does not show any significant effect

- Kd (KDM5D): 150 ± 15 µM
Compound: COc1ccc(S(=O)(=O)Nc2cccc(C(=O)O)c2)cc1 [RS3183]

- Kd (KDM5D): 38 ± 3 µM
Compound: CCOC(=O)c1ccccc1C(=O)c1ccc(NS(=O)(=O)c2ccc(Br)cc2)cc1 [RS4995]
